Data taken from ChEMBL document CHEMBL3603790, “2- and 3-Fluoro-3-deazaneplanocins, 2-fluoro-3-deazaaristeromycins, and 3-methyl-3-deazaneplanocin: Synthesis and antiviral properties” (Bioorg Med Chem, 2015).
The source made the active and inactive calls. No cut-off for these calls is given here.

Columns and labels:
Vaccinia virus = assay: Antiviral activity against Vaccinia virus infected in HEL cells after 3 days by neutral red dye-based plaque reduction assay; assay type: functional, organism-based; conditions: Orthopoxvirus vaccinia
Hepatitis B virus = assay: Antiviral activity against HBV infected in human HepG22.2.15 cells after 3 days by neutral red dye-based plaque reduction assay; assay type: functional, organism-based; conditions: HepG2 2.2.15, 72 h
[1] = Selectivity index, ratio of CC50 for African green monkey CV1 cells to IC50 for Measles virus; assay type: functional, CV-1
[2] = Cytotoxicity against African green monkey Vero 76 cells; assay type: cell-based; conditions: chlorocebus sabaeus, vero 76
Measles morbillivirus = assay: Antiviral activity against Measles virus infected in African green monkey CV1 cells after 3 days by neutral red dye-based plaque reduction assay; assay type: functional, organism-based; conditions: CV-1, 72 h
[3] = Cytotoxicity against African green monkey CV1 cells; assay type: cell-based, CV-1; conditions: chlorocebus aethiops
Influenza A virus = assay: Antiviral activity against Influenza A virus H1N1 infected in MDCK cells after 3 days by neutral red dye-based plaque reduction assay; assay type: functional, organism-based
Human alphaherpesvirus 1 = assay: Antiviral activity against Human herpesvirus 1 infected in HEL cells after 3 days by neutral red dye-based plaque reduction assay; assay type: functional, organism-based
Enterovirus C = assay: Antiviral activity against Poliovirus infected in monkey LLC-MK2 cells after 3 days by neutral red dye-based plaque reduction assay; assay type: functional, organism-based
LLC-MK2 = assay: Cytotoxicity against monkey LLC-MK2 cells; assay type: cell-based, Macaca mulatta; conditions: rhesus monkey
MDCK = assay: Cytotoxicity against MDCK cells; assay type: cell-based, Canis lupus familiaris; conditions: dog, mdck
[4] = test system: Venezuelan equine encephalitis virus; assay: Antiviral activity against Venezuelan equine encephalitis virus infected in African green monkey Vero cells after 3 days by neutral red dye-based plaque reduction assay; assay type: functional, organism-based
[5] = Selectivity index, ratio of CC50 for human HepG2(2.2.1) cells to IC50 for HBV; assay type: functional
SARS-CoV = assay: Antiviral activity against SARS coronavirus infected in African green monkey Vero E6 cells after 3 days by neutral red dye-based plaque reduction assay; assay type: functional, organism-based; conditions: Severe acute respiratory syndrome-related coronavirus
HEL = assay: Cytotoxicity against HEL cells; assay type: cell-based; conditions: human
Human alphaherpesvirus 2 = assay: Antiviral activity against Human herpesvirus 2 infected in HEL cells after 3 days by neutral red dye-based plaque reduction assay; assay type: functional, organism-based
Yellow fever virus = assay: Antiviral activity against Yellow fever virus infected in African green monkey Vero cells after 3 days by neutral red dye-based plaque reduction assay; assay type: functional, organism-based; conditions: 72 h
Human betaherpesvirus 5 = assay: Antiviral activity against HCMV infected in HFF after 3 days by neutral red dye-based plaque reduction assay; assay type: functional, organism-based; conditions: Human betaherpesvirus 5, 72 h
[6] = Selectivity index, ratio of CC50 for HFF to IC50 for HCMV; assay type: functional
[7] = (§1) Cytotoxicity against African green monkey Vero cells; assay type: cell-based; conditions: chlorocebus sabaeus, Vero cells
Dengue virus = assay: Antiviral activity against Dengue virus infected in African green monkey Vero cells after 3 days by neutral red dye-based plaque reduction assay; assay type: functional, organism-based
West Nile virus = assay: Antiviral activity against WNV infected in African green monkey Vero 76 cells after 3 days by neutral red dye-based plaque reduction assay; assay type: functional, organism-based
[8] = Cytotoxicity against monkey MA104 cells; assay type: cell-based, Macaca mulatta; conditions: rhesus monkey
[9] = Inhibition of rabbit erythrocytic AdoHcy hydrolase using AdoHcy as substrate assessed as formation of L-homocysteine preincubated for 5 mins followed by substrate addition measured after 1 hr by thiol quantitation reagent-based assay; set-up: species or system Oryctolagus cuniculus
[10] = Cytotoxicity against African green monkey Vero E6 cells; assay type: cell-based; conditions: chlorocebus sabaeus
Rift Valley fever virus = assay: Antiviral activity against Rift Valley fever virus infected in African green monkey Vero 76 cells after 3 days by neutral red dye-based plaque reduction assay; assay type: functional, organism-based
[11] = test system: Respiratory syncytial virus; assay: Antiviral activity against Respiratory syncytial virus infected in monkey MA104 cells after 3 days by neutral red dye-based plaque reduction assay; assay type: functional, organism-based
[12] = test system: Respiratory syncytial virus; assay: Antiviral activity against Respiratory syncytial virus infected in human HeLa cells after 3 days by neutral red dye-based plaque reduction assay; assay type: functional, organism-based
[13] = Cytotoxicity against human […] cells; assay type: cell-based
[14] = Cytotoxicity against human Ava5 cells; assay type: cell-based
[15] = Selectivity index, ratio of CC50 for African green monkey Vero cells to IC50 for Yellow fever virus; assay type: functional
[16] = Cytotoxicity against HFF; assay type: cell-based; conditions: human, HFF cells
HeLa = assay: Cytotoxicity against human HeLa cells; assay type: cell-based
Hepatitis C virus = assay: Antiviral activity against Hepatitis C virus infected in human Ava5 cells after 3 days by neutral red dye-based plaque reduction assay; assay type: functional, organism-based; conditions: Hepacivirus hominis
Pichinde virus = assay: Antiviral activity against Pichinde virus infected in African green monkey Vero cells after 3 days by neutral red dye-based plaque reduction assay; assay type: functional, organism-based
HEK293 = assay: Cytotoxicity against HEK293 cells; assay type: cell-based; conditions: human
Cytomegalovirus = assay: Antiviral activity against Cytomegalovirus infected in HEL cells after 3 days by neutral red dye-based plaque reduction assay; assay type: functional, organism-based
Tacaribe virus = assay: Antiviral activity against Tacaribe virus infected in African green monkey Vero 76 cells after 3 days by neutral red dye-based plaque reduction assay; assay type: functional, organism-based; conditions: Mammarenavirus tacaribeense
Human papillomavirus = assay: Antiviral activity against Human papillomavirus infected in HEK293 cells after 3 days by neutral red dye-based plaque reduction assay; assay type: functional, organism-based
Cowpox virus = assay: Antiviral activity against Cowpox virus infected in HFF after 3 days by neutral red dye-based plaque reduction assay; assay type: functional, organism-based
Enterovirus A71 = assay: Antiviral activity against Enterovirus 71 infected in monkey LLC-MK2 cells after 3 days by neutral red dye-based plaque reduction assay; assay type: functional, organism-based
Chikungunya virus = assay: Antiviral activity against Chikungunya virus infected in African green monkey Vero 76 cells after 3 days by neutral red dye-based plaque reduction assay; assay type: functional, cell-based
Vero = assay: as §1; assay type: cell-based; conditions: chlorocebus sabaeus, vero

Structure (SMILES): Nc1nc(F)cc2c1ncn2[C@@H]1C=C(CCO)[C@@H](O)[C@H]1O
- Activity (Vaccinia virus): inactive
- IC50 (Hepatitis B virus): 0.99 µM
- Ratio CC50/IC50 [1]: >1
- Activity [2]: Non-toxic
- IC50 (Measles morbillivirus): 89.8 µM
- CC50 [3]: > 100 µM
- Activity (Influenza A virus): inactive
- Activity (Human alphaherpesvirus 1): inactive
- Activity (Enterovirus C): inactive
- Activity (LLC-MK2): Non-toxic
- Activity (MDCK): Non-toxic
- Activity [4]: inactive
- Ratio CC50/IC50 [5]: 8
- Activity (SARS-CoV): inactive
- Activity (HEL): Non-toxic
- Activity (Human alphaherpesvirus 2): inactive
- IC50 (Yellow fever virus): 29 µM
- IC50 (Human betaherpesvirus 5): < 0.1 µM
- Ratio CC50/IC50 [6]: > 300
- CC50 [7]: > 100 µM
- Activity (Dengue virus): inactive
- Activity (West Nile virus): inactive
- Activity [8]: Non-toxic
- IC50 [9]: > 10 µM
- Activity [10]: Non-toxic
- Activity (Rift Valley fever virus): inactive
- Activity [11]: inactive
- Activity [12]: inactive
- CC50 [13]: 7.5 µM
- Activity [14]: Non-toxic
- Ratio CC50/IC50 [15]: >3.4
- CC50 [16]: > 300 µM
- Activity (HeLa): Non-toxic
- Activity (Hepatitis C virus): inactive

Structure (SMILES): Nc1nc(F)cc2c1ncn2[C@@H]1C[C@H](O)[C@@H](O)[C@H]1O
- Activity (Vaccinia virus): inactive
- Ratio CC50/IC50 [1]: >3
- Activity [2]: Non-toxic
- IC50 (Measles morbillivirus): 30.2 µM
- Activity (Pichinde virus): inactive
- Activity (HEK293): Non-toxic
- CC50 [3]: > 100 µM
- Activity (Influenza A virus): inactive
- Activity (Human alphaherpesvirus 1): inactive
- Activity (Enterovirus C): inactive
- Activity (LLC-MK2): Non-toxic
- Activity (MDCK): Non-toxic
- Activity [4]: inactive
- Activity (SARS-CoV): inactive
- Activity (HEL): Non-toxic
- Activity (Human alphaherpesvirus 2): inactive
- IC50 (Yellow fever virus): 15 µM
- CC50 [7]: > 100 µM
- Activity (Dengue virus): inactive
- Activity (Cytomegalovirus): inactive
- Activity (West Nile virus): inactive
- Activity (Tacaribe virus): inactive
- Activity (Human papillomavirus): inactive
- Activity (Cowpox virus): inactive
- Activity [8]: Non-toxic
- IC50 [9]: 1 µM
- Activity [10]: Non-toxic
- Activity (Rift Valley fever virus): inactive
- Activity (Enterovirus A71): inactive
- Activity [11]: inactive
- Activity [12]: inactive
- Activity (Chikungunya virus): inactive
- Activity [14]: Non-toxic
- Ratio CC50/IC50 [15]: >6.7
- Activity (HeLa): Non-toxic
- Activity (Hepatitis C virus): inactive

Structure (SMILES): Nc1nc(F)cc2c1ncn2[C@@H]1C[C@H](CCO)[C@@H](O)[C@H]1O
- Activity (Vaccinia virus): inactive
- Ratio CC50/IC50 [1]: >2.1
- Activity [2]: Non-toxic
- IC50 (Measles morbillivirus): 162 µM
- CC50 [3]: > 338 µM
- Activity [4]: inactive
- Activity (HEL): Non-toxic
- Activity (Vero): Non-toxic
- Activity (Dengue virus): inactive
- Activity (West Nile virus): inactive
- Activity (Tacaribe virus): inactive
- Activity [8]: Non-toxic
- IC50 [9]: 3.75 µM
- Activity (Rift Valley fever virus): inactive
- Activity [11]: inactive
- Activity [12]: inactive
- Activity [14]: Non-toxic
- Activity (HeLa): Non-toxic
- Activity (Hepatitis C virus): inactive
